According to patent publication US10501479B2, “Benzenesulfonyl-asymmetric ureas and medical uses thereof” (HELSINN HEALTHCARE SA, priority 2016, dated 2019):
Values joined by “and” are separate entries in the source; they are usually repeats but may differ in a detail not shown here. Equal entries are not always repeated. Where two headings read alike, the source gives them in different places.

Legend:
[1] = Metabolic stability in mouse liver microsomes; assay type: in vitro ADME
Procedure, shortened: (§1)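 Microsomes + compound, 100 mM K phosphate pH 7.4, 37 °C; 5 min preincubation, NADPH regenerating system added to start. Aliquots at 0/10/30/90 min into cold quench, spun 5000×g, supernatant diluted, LC-MS/MS.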

[2] = molecular target: T1, recombinant human ghrelin receptor (HEK293/GRLN) (Homo sapiens, UniProt Q92847); assay: Ghrelin inverse agonist potency (EC50) with IP-1 (IP-One HTRF) assay; assay type: cell-based; settings: IP-1 assay
T1 construct: expressed in transfected cells
Procedure, shortened: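 IP-1 accumulation was measured by HTRF (IP1-d2/Tb-cryptate, 620/665 nm read after 1 hour at room temperature) following 1 hour of compound treatment at 37° C. Cells were HEK293 stably expressing human ghrelin receptor, plated a day earlier on Matrigel. Inverse agonist potency was reported as EC50.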

[3] = Metabolic stability in rat liver microsomes; assay type: in vitro ADME
Protocol: (§2) Metabolic Stability Study
(§3) The metabolic stability of compounds in human, dog, rat and mouse liver microsomes was performed according the experimental conditions reported below:
(§4) • a) Prepare the following 5 stock solutions: • 1. Test compound stock solutions: dilute 10 mM solution of dextromethorphan (Dtr) in DMSO, 10 mM solution of diphenhydramine (DPA) in DMSO, 10 mM solution of omeprazole (Ome) in DMSO, 10 mM solution of verapamil (Ver) in DMSO, and 10 mM of an inverse agonist compound in DMSO to 0.25 mM solution each with acetonitrile/water (70/30). • 2. Buffer: 100 mM potassium phosphate Buffer (PBS) at pH 7.4 • 3. Liver microsomes (20 mg/ml): Thaw in 37° C. water bath quickly • 4. 2000 μL: of NADPH regenerating system (1.3 mM). Place this system on ice before use:
(§5) • 5. […] The test compound concentration in the wells, measured by LC-MS/MS, represents the concentration at time=0. • f) To determine the test compound concentration when t≠0, pre-incubate the NADPH regenerating system and the incubation plate containing the remaining 320 μL of incubation mixture (microsomes protein and test compound) for 5 minutes at 37° C. • g) Start the incubation reaction by adding 80 μL NADPH regenerating system to each well containing the remaining 320 μL incubation mixture. • h) After 10 min., 30 min., and 90 min. of incubation at 37° C., transfer 100 μL of the incubation mixture (microsomes protein, test compound, and NADPH) into the wells of a stop plate pre-filled with 300 μL of the cold quench solution. Shake well. • i) Centrifuge the stop plate at 5000×g for 10 minutes. Collect and dilute the supernatant 3 times with distilled water. Sample and analyze the test compound concentration for all the wells by LC-MS/MS. Animal PK Studies via i.v. (intravenous), p.o. (orally) and s.c. (subcutaneous) administrations

[4] = Metabolic stability in dog liver microsomes; assay type: in vitro ADME
Protocol: as §2, §3, §4, §5

[5] = Metabolic stability in human liver microsomes; assay type: in vitro ADME
Procedure, shortened: as §1

[6] = molecular target: T2, GHSR-1a (HEK293/GHSR1a cell line) (Homo sapiens, UniProt Q92847); assay: Ghrelin antagonist potency (IC50) with calcium FLIPR assay, ghrelin 10 nM; assay type: cell-based
T2 construct: expressed in transfected cells; host or cells: HEK293/GHSR1a cell line
Procedure, shortened: (§6)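 Fluorescence read-out of intracellular calcium over 2 min. Agonist EC50 came from compound added alone at t=20 sec. Antagonist IC50 came from the reduction of the response to 10 nM ghrelin co-added with compound at t=20 sec. Both were fitted from dose-response data.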

[7] = Animal PK study in mouse via i.v., p.o. and s.c. administration; assay type: in vivo; settings: for Vd / clearance / half-life: plasma; for clearance: read-out: PK CL i.v.
Procedure, shortened: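 Plasma drug levels were measured by LC-MS/MS after acetonitrile precipitation, with blood drawn up to 24 h post-dose (from 0.083 h i.v./s.c., 0.25 h oral) in mice or rats. Animals received one dose by gavage in DMSO/methylcellulose, or by tail-vein or subcutaneous injection in DMSO/HP-β-cyclodextrin.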

[8] = Plasma protein binding (PPB), mouse; assay type: in vitro ADME
[9] = Plasma protein binding (PPB), human; assay type: in vitro ADME; settings: read-out: PPB (H) (converted)
[10] = molecular target: T2, GHSR-1a (HEK293/GHSR1a cell line); assay: Ghrelin agonist potency (EC50) with calcium FLIPR assay; assay type: cell-based; settings: HEK293/GHSR1a, read-out: Activity EC50/EMax: EC50 (ghrelin agonist potency)
Procedure, shortened: as §6

[11] = inverse agonist potency, read-out: EC50 (Activity)
[12] = ghrelin antagonist potency, read-out: IC50 (Activity)
[13] = HEK293/GRLN, read-out: Activity EC50 (ghrelin inverse agonist potency)
[14] = HEK293/GHSR1a, ghrelin 10 nM, read-out: Activity IC50 (ghrelin antagonist potency)
[15] = iv, 5 mg/kg, i.v., read-out: PK t1/2 i.v.
[16] = po, 10 mg/kg, p.o., read-out: PK t1/2 p.o.

T1 sequence (Q92847 whole entry): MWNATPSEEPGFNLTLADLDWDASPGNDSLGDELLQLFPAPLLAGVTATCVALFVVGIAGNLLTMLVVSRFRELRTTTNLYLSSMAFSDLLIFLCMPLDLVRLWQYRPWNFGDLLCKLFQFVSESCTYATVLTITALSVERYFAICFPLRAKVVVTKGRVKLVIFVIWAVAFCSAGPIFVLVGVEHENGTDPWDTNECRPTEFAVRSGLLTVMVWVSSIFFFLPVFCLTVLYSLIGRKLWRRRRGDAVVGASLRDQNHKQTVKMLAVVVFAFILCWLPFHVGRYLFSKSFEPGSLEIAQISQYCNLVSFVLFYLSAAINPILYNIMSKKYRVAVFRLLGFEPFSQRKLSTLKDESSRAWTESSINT
T2 sequence (Q92847 whole entry): as above

| Structure (SMILES) | Metabolic Stability Study M = mouse [1] | EC50 [2, 11] | Metabolic Stability Study R = rat [3] | Metabolic Stability Study D = dog [4] | Metabolic Stability Study H = human [5] | IC50 [6, 12] | fraction unbound [8] | EC50 [2, 13] | fraction unbound [9] | EC50 [10] | IC50 [6, 14] | also measured |
| --- | --- | --- | --- | --- | --- | --- | --- | --- | --- | --- | --- | --- |
| C[C@H](NC(=O)Nc1ccc(S(=O)(=O)Nc2ccc(CC(C)(C)N)cc2)cc1)c1cccc(Cl)c1Cl.Cl [H0943, (S)-N-(4-(2-amino-2-methylpropyl)phenyl)-4-(3-(1-(2,3-dichlorophenyl)ethyl)ureido) benzenesulfonamide] | < 10 µL/min/mg | 2.5 nM | 11.7 µL/min/mg | < 10 µL/min/mg | 10.6 µL/min/mg | 7.8 nM | – | – | – | – | – | – |
| CC(C)(N)Cc1ccc(NS(=O)(=O)c2ccc(NC(=O)NCc3ccccc3)cc2)cc1.Cl [H0993, N-(4-(2-amino-2-methylpropyl)phenyl)-4-(3-benzylureido) benzenesulfonamide] | 14.3 µL/min/mg | 21 nM | 15.1 µL/min/mg | < 10 µL/min/mg | 18.5 µL/min/mg | 288 nM | – | – | – | – | – | PK F [7]: 0.4%; PK CLiv ([7]; i.v.): 35.8 mL/min/kg; PK Vdiv ([7]; i.v.): 4.31 L/kg; PK t1/2iv ([7]; i.v.): 1.39 h; PK CLpo ([7]; p.o.): 7302 mL/min/kg; PK Vdpo ([7]; p.o.): 2550 L/kg; PK t1/2po ([7]; p.o.): 4.03 h |
| CN(C)C(C)(C)Cc1ccc(NS(=O)(=O)c2ccc(NC(=O)NCc3cccc(Cl)c3Cl)cc2)cc1 [H0995, 4-(3-(2,3-dichlorobenzyl)ureido)-N-(4-(2-(dimethylamino)-2-methylpropyl)phenyl) benzenesulfonamide] | 194.6 µL/min/mg | 2.52 nM | 92.4 µL/min/mg | 52.7 µL/min/mg | 54.5 µL/min/mg | 32.1 nM | – | – | – | – | – | – |
| CC(C)(N)Cc1ccc(CS(=O)(=O)c2ccc(NC(=O)NCc3cccc(Cl)c3Cl)cc2)cc1 [H0996, 1-(4-((4-(2-amino-2-methylpropyl)benzyl)sulfonyl)phenyl)-3-(2,3-dichlorobenzyl)urea] | 125.4 µL/min/mg | 64 nM | 77.8 µL/min/mg | < 10 µL/min/mg | 27.5 µL/min/mg | 461 nM | – | – | – | – | – | – |
| C[C@@H](NC(=O)Nc1ccc(S(=O)(=O)Cc2ccc3c(c2)CNC3)cc1)c1ccccc1 [H1214, (R)-1-(4-((isoindolin-5-ylmethyl)sulfonyl)phenyl)-3-(1-phenylethyl)urea] | 21.4 µL/min/mg | 147 nM | 18 µL/min/mg | < 10 µL/min/mg | 16.6 µL/min/mg | 278 nM | – | – | – | – | – | – |
| CC(NC(=O)Nc1ccc(S(=O)(=O)Cc2ccc3c(c2)CNC3)cc1)c1ccccc1Cl.Cl (stereo not shown) [H1261, 1-(1-(2-chlorophenyl)ethyl)-3-(4-((isoindolin-5-ylmethyl)sulfonyl)phenyl)urea] | 23 µL/min/mg | – | – | – | 48.8 µL/min/mg | – | 0.019 | 2.2 nM | 0.045 | > 30000 nM | 1.57 nM | – |
| CC(NC(=O)Nc1ccc(S(=O)(=O)Cc2ccc3c(c2)CNC3)cc1)c1ccc(F)cc1 (stereo not shown) [H1262, 1-(1-(4-fluorophenyl)ethyl)-3-(4-((isoindolin-5-ylmethyl)sulfonyl)phenyl)urea] | 11.2 µL/min/mg | – | – | – | 18.2 µL/min/mg | – | 0.05 | 7.5 nM | 0.099 | > 30000 nM | 10.6 nM | PK F [7]: 1.13%; PK CL p.o. ([7]; p.o.): 1847 mL/min/kg; PK Vd p.o. ([7]; p.o.): 307 L/kg; Vd ([7]; iv, 5 mg/kg): 1.69 L/kg; clearance ([7]; iv, 5 mg/kg, i.v.): 21.8 mL/min/kg; half-life [7, 15]: 0.89 h; half-life [7, 16]: 1.92 h |
| C[C@H](NC(=O)Nc1ccc2c(c1)CC(c1ccc3c(c1)CNC3)S2(=O)=O)c1ccccc1 (stereo partly drawn) [H1264, 1-(2-(isoindolin-5-yl)-1,1-dioxido-2,3-dihydrobenzo[b]thiophen-5-yl)-3-((S)-1-phenylethyl)urea] | H < 10 M < 10 R = not reported D = not reported μL/min/mg | – | – | – | H < 10 M < 10 R = not reported D = not reported μL/min/mg | – | 0.185 | – | 0.221 | – | 4.4 nM | PK F [7]: 0.36%; PK Vd p.o. ([7]; p.o.): 627.9 L/kg; Vd ([7]; iv, 5 mg/kg): 4.83 L/kg; clearance ([7]; iv, 5 mg/kg, i.v.): 48.2 mL/min/kg; half-life [7, 15]: 1.16 h; half-life [7, 16]: 0.64 h |
| COc1cc(S(=O)(=O)Cc2ccc3c(c2)CNC3)ccc1NC(=O)NC(C)c1ccccc1.Cl (stereo not shown) [H1383, 1-(4-((isoindolin-5-ylmethyl)sulfonyl)-2-methoxyphenyl)-3-(1-phenylethyl)urea] | 91.9 µL/min/mg | – | 48.2 µL/min/mg | 27.8 µL/min/mg | 21 µL/min/mg | – | – | 2.01 nM | – | > 30000 nM | 11.9 nM | – |
| COc1cc(S(=O)(=O)Cc2ccc3c(c2)CNC3)ccc1NC(=O)NC(C)c1cccc2ccccc12.O=C(O)C(F)(F)F (stereo not shown) [H1419, 1-(4-((isoindolin-5-ylmethyl)sulfonyl)-2-methoxyphenyl)-3-(1-(naphthalen-1-yl)ethyl)urea] | 45.1 µL/min/mg | – | – | – | 33.1 µL/min/mg | – | 0.0031 | 0.5 nM | 0.0041 | > 30000 nM | 4.4 nM | – |
| COc1cc(S(=O)(=O)Cc2ccc3c(c2)CNC3)ccc1NC(=O)NC(C)c1ccccc1F.O=C(O)C(F)(F)F (stereo not shown) [H1420, 1-(1-(2-fluorophenyl)ethyl)-3-(4-((isoindolin-5-ylmethyl)sulfonyl)-2-methoxyphenyl)urea] | 50.6 µL/min/mg | – | – | – | 17.4 µL/min/mg | – | 0.0461 | 1 nM | 0.028 | > 30000 nM | 22 nM | – |
| COc1cc(S(=O)(=O)Cc2ccc3c(c2)CC(C)NC3)ccc1NC(=O)NC(C)c1ccccc1 (stereo not shown) [H1441, 1-(2-methoxy-4-(((3-methyl-1,2,3,4-tetrahydroisoquinolin-6-yl)methyl)sulfonyl)phenyl)-3-(1-phenylethyl)urea] | 16.4 µL/min/mg | – | – | – | 17.3 µL/min/mg | – | 0.045 | 4.3 nM and 3.3 nM | 0.0245 | > 30000 nM | 14.9 nM and 40.4 nM | – |
